Reference: patent US20260022142A1, “MACROCYCLIC IMMUNOMODULATORS” (Bristol-Myers Squibb Company, priority 2022, published 2026)
pIC50: −log10 of the molar value. Bridge positions count the residues as written; N and C are the ends. Square brackets hold non-standard residues; d marks the D form. Peptide text beside a SMILES is read from it. * marks the point of attachment. Bip = N[C@@H](Cc1ccc(-c2ccccc2)cc1)C(=O)O; Tyr(3-Me) = Cc1cc(C[C@H](N)C(=O)O)ccc1O; Phe(3-Me) = Cc1cccc(C[C@H](N)C(=O)O)c1; Cha = N[C@@H](CC1CCCCC1)C(=O)O; hSer = N[C@@H](CCO)C(=O)O; Carboxymethyl = O=C(O)C*; Orn = NCCC[C@H](N)C(=O)O; Aun = NCCCCCCCCCCC(=O)O; Dab = NCC[C@H](N)C(=O)O; Dap = NC[C@H](N)C(=O)O

Target: T1, PD-1/PD-L1 interaction (PE-labeled human PD-L1-Ig binding to Jurkat cell line over-expressing human PD-1) (Homo sapiens, UniProt Q15116)
T1 construct: expressed in transfected cells; host or cells: Jurkat
T1 sequence (Q15116 25-288): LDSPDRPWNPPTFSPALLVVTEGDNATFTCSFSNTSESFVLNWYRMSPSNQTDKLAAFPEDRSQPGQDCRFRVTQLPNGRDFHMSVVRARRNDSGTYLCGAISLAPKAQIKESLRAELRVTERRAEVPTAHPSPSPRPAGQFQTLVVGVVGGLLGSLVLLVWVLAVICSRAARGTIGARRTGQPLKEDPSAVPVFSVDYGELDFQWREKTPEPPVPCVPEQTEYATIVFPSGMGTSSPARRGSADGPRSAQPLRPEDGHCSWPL
Assay: Jurkat-PD-1 Cell Binding High-Content Screening Assay (CBA)
Type: cell-based
Settings: Jurkat cell line over-expressing human PD-1; PE-labeled PD-L1-Ig 20 nM final; read-out: Jurkat hPD1-PDL1 IC50
Method in brief: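 First, compound is added to PD-1-expressing Jurkat cells in serum-containing DMEM and left 2 h at 37° C. Next, PE-conjugated PD-L1-Ig is introduced at 20 nM final concentration for 1 hour. Finally, cells are fixed in 4% paraformaldehyde with Hoechst 33342, washed and imaged.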

Cc1cccc(C[C@@H]2NC(=O)[C@H](CC(=O)O)NC(=O)[C@H](Cc3ccc(OCC(=O)O)cc3)NC(=O)[C@H](CCCNC(=N)N)NC(=O)CSC[C@@H](C(=O)N[C@@H](CCN)C(=O)NCCCCCCCCCCC(=O)O)NC(=O)[C@H]([C@@H](C)O)NC(=O)[C@H](C(C)C)NC(=O)[C@H](CC3CCCCC3)NC(=O)[C@H](CCN)NC(=O)[C@@H](CC(C)C)NC(=O)[C@H](CCCN)NC(=O)[C@H](Cc3ccc(OCC(=O)O)cc3)NC(=O)[C@H](Cc3ccc(-c4ccccc4)cc3)NC(=O)[C@H](Cc3ccc(OCC(=O)O)cc3)NC2=O)c1 [Compound 2085] ({CH2CO}-RY(Carboxymethyl)D[Phe(3-Me)]Y(Carboxymethyl)[Bip]Y(Carboxymethyl)[Orn][dL][Dab][Cha]VTC[Dab][Aun]-OH; thioether N-14)
pIC50: 8.07

Cc1cccc(C[C@@H]2NC(=O)[C@H](CC(=O)O)NC(=O)[C@H](Cc3ccc(OCC(=O)O)cc3)NC(=O)[C@H]([C@@H](C)O)NC(=O)CSC[C@@H](C(=O)N[C@@H](CCN)C(=O)NCCCCCCCCCCC(=O)O)NC(=O)[C@H]([C@@H](C)O)NC(=O)[C@H](C(C)C)NC(=O)[C@H](CC3CCCCC3)NC(=O)[C@H](CCN)NC(=O)[C@@H](CC(C)C)NC(=O)[C@H](CCCN)NC(=O)[C@H](Cc3ccc(OCC(=O)O)cc3)NC(=O)[C@H](Cc3ccc(-c4ccccc4)cc3)NC(=O)[C@H](Cc3ccc(OCC(=O)O)cc3)NC2=O)c1 [Compound 2086] ({CH2CO}-TY(Carboxymethyl)D[Phe(3-Me)]Y(Carboxymethyl)[Bip]Y(Carboxymethyl)[Orn][dL][Dab][Cha]VTC[Dab][Aun]-OH; thioether N-14)
pIC50: 7.99

Cc1cccc(C[C@@H]2NC(=O)[C@H](CC(=O)O)NC(=O)[C@H](Cc3ccc(OCC(=O)O)cc3)NC(=O)[C@H](CN)NC(=O)CSC[C@@H](C(=O)N[C@@H](CCN)C(=O)NCCCCCCCCCCC(=O)O)NC(=O)[C@H]([C@@H](C)O)NC(=O)[C@H](C(C)C)NC(=O)[C@H](CC3CCCCC3)NC(=O)[C@H](CCN)NC(=O)[C@@H](CC(C)C)NC(=O)[C@H](CCN)NC(=O)[C@H](Cc3ccc(OCC(=O)O)cc3)NC(=O)[C@H](Cc3ccc(-c4ccccc4)cc3)NC(=O)[C@H](Cc3ccc(O)cc3)NC2=O)c1 [Compound 2087] ({CH2CO}-[Dap]Y(Carboxymethyl)D[Phe(3-Me)]Y[Bip]Y(Carboxymethyl)[Dab][dL][Dab][Cha]VTC[Dab][Aun]-OH; thioether N-14)
pIC50: 7.82

Cc1cccc(C[C@@H]2NC(=O)[C@H](CC(=O)O)NC(=O)[C@H](Cc3ccc(OCC(=O)O)cc3)NC(=O)[C@H](CN)NC(=O)CSC[C@@H](C(=O)N[C@@H](CCCN)C(=O)NCCCCCCCCCCC(=O)O)NC(=O)[C@H]([C@@H](C)O)NC(=O)[C@H](C(C)C)NC(=O)[C@H](CC3CCCCC3)NC(=O)[C@H](CCN)NC(=O)[C@@H](CC(C)C)NC(=O)[C@H](CCN)NC(=O)[C@H](Cc3ccc(OCC(=O)O)cc3)NC(=O)[C@H](Cc3ccc(-c4ccccc4)cc3)NC(=O)[C@H](Cc3ccc(O)cc3)NC2=O)c1 [Compound 2088] ({CH2CO}-[Dap]Y(Carboxymethyl)D[Phe(3-Me)]Y[Bip]Y(Carboxymethyl)[Dab][dL][Dab][Cha]VTC[Orn][Aun]-OH; thioether N-14)
pIC50: 7.83

Cc1cccc(C[C@@H]2NC(=O)[C@H](CC(=O)O)NC(=O)[C@H](Cc3ccc(OCC(=O)O)cc3)NC(=O)[C@H](Cc3ccc(OCC(=O)O)cc3)NC(=O)CSC[C@@H](C(=O)N[C@@H](CCN)C(=O)NCCCCCCCCCCC(=O)O)NC(=O)[C@H](CO)NC(=O)[C@H](C(C)C)NC(=O)[C@H](CC3CCCCC3)NC(=O)[C@H](CCN)NC(=O)[C@@H](CC(C)C)NC(=O)[C@H](CCCN)NC(=O)[C@H](Cc3ccc(OCC(=O)O)cc3)NC(=O)[C@H](Cc3ccc(-c4ccccc4)cc3)NC(=O)[C@H](C(C)C)NC2=O)c1 [Compound 2089] ({CH2CO}-Y(Carboxymethyl)Y(Carboxymethyl)D[Phe(3-Me)]V[Bip]Y(Carboxymethyl)[Orn][dL][Dab][Cha]VSC[Dab][Aun]-OH; thioether N-14)
pIC50: 7.36

Cc1cccc(C[C@@H]2NC(=O)[C@H](CC(=O)O)NC(=O)[C@H](Cc3ccc(OCC(=O)O)cc3)NC(=O)[C@H](CN)NC(=O)CSC[C@@H](C(=O)N[C@@H](CCN)C(=O)NCCCCCCCCCCC(=O)O)NC(=O)[C@H]([C@@H](C)O)NC(=O)[C@H](C(C)C)NC(=O)[C@H](CC3CCCCC3)NC(=O)[C@H](CCN)NC(=O)[C@@H](CC(C)C)NC(=O)[C@H](CCCN)NC(=O)[C@H](Cc3ccc(O)cc3)NC(=O)[C@H](Cc3ccc(-c4ccccc4)cc3)NC(=O)[C@H](Cc3ccc(OCC(=O)O)cc3)NC2=O)c1 [Compound 2090] ({CH2CO}-[Dap]Y(Carboxymethyl)D[Phe(3-Me)]Y(Carboxymethyl)[Bip]Y[Orn][dL][Dab][Cha]VTC[Dab][Aun]-OH; thioether N-14)
pIC50: 7.74

Cc1cccc(C[C@@H]2NC(=O)[C@H](CC(=O)O)NC(=O)[C@H](Cc3ccc(OCC(=O)O)cc3)NC(=O)[C@H](CN)NC(=O)CSC[C@@H](C(=O)N[C@@H](CCN)C(=O)NCCCCCCCCCCC(=O)O)NC(=O)[C@H](CO)NC(=O)[C@H](C(C)C)NC(=O)[C@H](CC3CCCCC3)NC(=O)[C@H](CCN)NC(=O)[C@@H](CC(C)C)NC(=O)[C@H](CCCN)NC(=O)[C@H](Cc3ccc(O)cc3)NC(=O)[C@H](Cc3ccc(-c4ccccc4)cc3)NC(=O)[C@H](Cc3ccc(OCC(=O)O)cc3)NC2=O)c1 [Compound 2091] ({CH2CO}-[Dap]Y(Carboxymethyl)D[Phe(3-Me)]Y(Carboxymethyl)[Bip]Y[Orn][dL][Dab][Cha]VSC[Dab][Aun]-OH; thioether N-14)
pIC50: 7.58

Cc1cccc(C[C@@H]2NC(=O)[C@H](CC(=O)O)NC(=O)[C@H](Cc3ccc(OCC(=O)O)cc3)NC(=O)[C@H]([C@@H](C)O)NC(=O)CSC[C@@H](C(=O)N[C@@H](CCN)C(=O)NCCCCCCCCCCC(=O)O)NC(=O)[C@H]([C@@H](C)O)NC(=O)[C@H](C(C)C)NC(=O)[C@H](CC3CCCCC3)NC(=O)[C@H](CCN)NC(=O)[C@@H](CC(C)C)NC(=O)[C@H](CCCN)NC(=O)[C@H](Cc3ccc(O)cc3)NC(=O)[C@H](Cc3ccc(-c4ccccc4)cc3)NC(=O)[C@H](Cc3ccc(OCC(=O)O)cc3)NC2=O)c1 [Compound 2092] ({CH2CO}-TY(Carboxymethyl)D[Phe(3-Me)]Y(Carboxymethyl)[Bip]Y[Orn][dL][Dab][Cha]VTC[Dab][Aun]-OH; thioether N-14)
pIC50: 7.60

Cc1cccc(C[C@@H]2NC(=O)[C@H](CC(=O)O)NC(=O)[C@H](Cc3ccc(OCC(=O)O)cc3)NC(=O)[C@H]([C@@H](C)O)NC(=O)CSC[C@@H](C(=O)N[C@@H](CCN)C(=O)NCCCCCCCCCCC(=O)O)NC(=O)[C@H](CO)NC(=O)[C@H](C(C)C)NC(=O)[C@H](CC3CCCCC3)NC(=O)[C@H](CCN)NC(=O)[C@@H](CC(C)C)NC(=O)[C@H](CCCN)NC(=O)[C@H](Cc3ccc(OCC(=O)O)cc3)NC(=O)[C@H](Cc3ccc(-c4ccccc4)cc3)NC(=O)[C@H](Cc3ccc(O)cc3)NC2=O)c1 [Compound 2093] ({CH2CO}-TY(Carboxymethyl)D[Phe(3-Me)]Y[Bip]Y(Carboxymethyl)[Orn][dL][Dab][Cha]VSC[Dab][Aun]-OH; thioether N-14)
pIC50: 7.63

Cc1cccc(C[C@@H]2NC(=O)[C@H](CC(=O)O)NC(=O)[C@H](Cc3ccc(OCC(=O)O)cc3)NC(=O)[C@H](CCCNC(=N)N)NC(=O)CSC[C@@H](C(=O)N[C@@H](CCN)C(=O)NCCCCCCCCCCC(=O)O)NC(=O)[C@H](CCO)NC(=O)[C@H](C(C)C)NC(=O)[C@H](CC3CCCCC3)NC(=O)[C@H](CCN)NC(=O)[C@@H](CC(C)C)NC(=O)[C@H](CCCN)NC(=O)[C@H](Cc3ccc(OCC(=O)O)cc3)NC(=O)[C@H](Cc3ccc(-c4ccccc4)cc3)NC(=O)[C@H](Cc3ccc(OCC(=O)O)cc3)NC2=O)c1 [Compound 2094] ({CH2CO}-RY(Carboxymethyl)D[Phe(3-Me)]Y(Carboxymethyl)[Bip]Y(Carboxymethyl)[Orn][dL][Dab][Cha]V[hSer]C[Dab][Aun]-OH; thioether N-14)
pIC50: 8.18

Cc1cccc(C[C@@H]2NC(=O)[C@H](CC(=O)O)NC(=O)[C@H](Cc3ccc(OCC(=O)O)cc3)NC(=O)[C@H](CCCNC(=N)N)NC(=O)CSC[C@@H](C(=O)N[C@@H](CCN)C(=O)NCCCCCCCCCCC(=O)O)NC(=O)[C@H](CCO)NC(=O)[C@H](C(C)C)NC(=O)[C@H](CC3CCCCC3)NC(=O)[C@H](CCN)NC(=O)[C@@H](CC(C)C)NC(=O)[C@H](CCCN)NC(=O)[C@H](Cc3ccc(O)cc3)NC(=O)[C@H](Cc3ccc(-c4ccccc4)cc3)NC(=O)[C@H](Cc3ccc(OCC(=O)O)cc3)NC2=O)c1 [Compound 2095] ({CH2CO}-RY(Carboxymethyl)D[Phe(3-Me)]Y(Carboxymethyl)[Bip]Y[Orn][dL][Dab][Cha]V[hSer]C[Dab][Aun]-OH; thioether N-14)
pIC50: 8.02

Cc1cc(C[C@@H]2NC(=O)[C@H](CC(=O)O)NC(=O)[C@H](Cc3ccc(OCC(=O)O)cc3)NC(=O)[C@H](CN)NC(=O)CSC[C@@H](C(=O)N[C@@H](CCN)C(=O)NCCCCCCCCCCC(=O)O)NC(=O)[C@H](CCO)NC(=O)[C@H](C(C)C)NC(=O)[C@H](CC3CCCCC3)NC(=O)[C@H](CCN)NC(=O)[C@@H](CC(C)C)NC(=O)[C@H](CCCN)NC(=O)[C@H](Cc3ccc(OCC(=O)O)cc3)NC(=O)[C@H](Cc3ccc(-c4ccccc4)cc3)NC(=O)[C@H](C(C)C)NC2=O)ccc1O [Compound 2096] ({CH2CO}-[Dap]Y(Carboxymethyl)D[Tyr(3-Me)]V[Bip]Y(Carboxymethyl)[Orn][dL][Dab][Cha]V[hSer]C[Dab][Aun]-OH; thioether N-14)
pIC50: 7.44

Cc1cccc(C[C@@H]2NC(=O)[C@H](CC(=O)O)NC(=O)[C@H](Cc3ccc(OCC(=O)O)cc3)NC(=O)[C@H](CN)NC(=O)CSC[C@@H](C(=O)N[C@@H](CCN)C(=O)NCCCCCCCCCCC(=O)O)NC(=O)[C@@H](CO)NC(=O)[C@H](C(C)C)NC(=O)[C@H](CC3CCCCC3)NC(=O)[C@H](CCN)NC(=O)[C@@H](CC(C)C)NC(=O)[C@H](CCCN)NC(=O)[C@H](Cc3ccc(OCC(=O)O)cc3)NC(=O)[C@H](Cc3ccc(-c4ccccc4)cc3)NC(=O)[C@H](C(C)C)NC2=O)c1 [Compound 2097] ({CH2CO}-[Dap]Y(Carboxymethyl)D[Phe(3-Me)]V[Bip]Y(Carboxymethyl)[Orn][dL][Dab][Cha]V[dS]C[Dab][Aun]-OH; thioether N-14)
pIC50: 7.41
